Values quoted from earlier work, collected in patent US11382865B2, “Pharmaceutical preparation and method for its manufacture” (BAYER ANIMAL HEALTH GMBH, priority 2016, dated 2022).

Columns and labels:
[1] = tested on: parasitic worms (helminths); conditions: veterinary parasiticide

Solubility in organic solvents (organic solvents): readily soluble | Solubility in water (water): practically insoluble
Compound: CO/N=C1\C[C@]2(C[C@@H]3C[C@@H](C/C=C(\C)C[C@@H](C)/C=C/C=C4\CO[C@@H]5[C@H](O)C(C)=C[C@@H](C(=O)O3)[C@]45O)O2)O[C@H](/C(C)=C/C(C)C)[C@H]1C [Moxidectin]
Dose at which active [1]: < 25 μg/kg body weight
